Experimental data as given in paper PMC6449294, “SNAPshots of the MCHR1: a Comparison Between the PET-Tracers [^18F]FE@SNAP and [^11C]SNAP-7941” (Molecular Imaging and Biology, 2018).

Key:
P-gp/BCRP = assay: Small animal PET of rat brain, vehicle vs pretreatment with P-gp/BCRP inhibitor TQD; type: in vivo; details: for increase of brain uptake in TQD blocking group vs vehicle: rats, TQD 15 mg/kg 60 min before radiotracer, PET
Method: Ten-week-old male rats (412 ± 58 g, Sprague-Dawley, HIM:OFA, n = 30) and 12-week-old male mice (24 ± 6 g, BALB/cAnNRj, n = 7) were purchased from the Division of Laboratory Animal Science and Genetics, Himberg, Austria. Animals were kept under conventional housing conditions (22 ± 1 °C; 40–70 % humidity) with food and water supply ad libitum and 12-h day/night cycle. All animals were treated according to the European Union rules on animal care and respective animal experiments were approved by the Austrian Ministry of Sciences, Research and Economy (BMWFW-66.009/0029-WF/V/3b/20159). For in vivo imaging, animals were anesthetized using 1.5–2 % isoflurane mixed with oxygen (1.5–2 l/min) to avoid movement during the examination. Anesthesia as well as vital parameters were monitored during the time interval of PET acquisition. Radioligands and non-labeled compounds were administered intravenously via the lateral tail vein.
Anesthetized rats and mice were immobilized in a multimodal animal carrier unit (MACU; medres®—medical research GmbH, Cologne, Germany). The body temperature was preserved at 37 °C throughout the whole experiment. Rats received either [^11C]SNAP-7941 or [^18F]FE@SNAP, followed by an injection of (±)-SNAP-7941 (15-mg/kg body weight; displacement study; n = 4 for each radiotracer) or the respective solvent serving as the vehicle (baseline condition; n = 4 for each radiotracer). The MCHR1 antagonist, (±)-SNAP-7941, and the vehicle were administered either 15 ([^11C]SNAP-7941) or 20 min ([^18F]FE@SNAP) after the radiotracer application via the lateral tail vein. To investigate a potential binding to the P-glycoprotein (P-gp) and/or breast cancer resistance protein (BCRP) brain efflux transporter system, rats as well as mice were pretreated either with the P-gp/BCRP inhibitor TQD (15 mg/kg body weight; P-gp/BCRP inhibition group; rats: n = 4 for each radiotracer; mice: n = 4 for [^18F]FE@SNAP) or the respective solvent (baseline condition; rats: n = 3 for each radiotracer; mice: n = 3 for [^18F]FE@SNAP)). […]

MCHR1 = target: T1, MCHR1 (Rattus norvegicus, UniProt P97639); assay: Ex vivo biodistribution, vehicle vs displacement with (±)-SNAP-7941; type: in vivo; details: 15 mg/kg (±)-SNAP-7941
T1 construct: from tissue; host or cells: living Sprague-Dawley rats (PET) and their organs after sacrifice
T1 sequence (P97639 whole entry): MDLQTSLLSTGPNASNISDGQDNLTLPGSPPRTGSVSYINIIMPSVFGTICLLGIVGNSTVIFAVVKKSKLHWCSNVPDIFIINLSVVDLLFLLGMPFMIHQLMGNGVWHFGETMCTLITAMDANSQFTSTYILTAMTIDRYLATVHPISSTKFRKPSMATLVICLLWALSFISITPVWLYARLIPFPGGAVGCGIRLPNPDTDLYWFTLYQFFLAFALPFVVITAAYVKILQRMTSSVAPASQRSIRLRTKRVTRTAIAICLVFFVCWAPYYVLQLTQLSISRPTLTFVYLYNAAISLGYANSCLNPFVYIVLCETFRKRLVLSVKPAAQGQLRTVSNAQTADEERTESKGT
Text: After the imaging studies, the animals were sacrificed by decapitation; blood and tissues were removed and collected in tubes, weighed, and subjected to radioactivity measurements in a Gamma Counter (2480 WIZARD^2, PerkinElmer, Waltham, MA, USA). Values were normalized to the applied dose, the organ, and body weight and expressed as the standardized uptake value (SUV [g/ml]).

Row | SMILES | P-gp/BCRP substrate status (P-gp/BCRP; rat brain PET after TQD pretreatment, result in words) | increase of brain uptake in TQD blocking group vs vehicle (P-gp/BCRP) | difference in colon uptake between vehicle and displacement groups (MCHR1) | difference in eye uptake between vehicle and displacement groups (MCHR1) | difference in pancreas uptake between vehicle and displacement groups (MCHR1) | overall biodistribution: uptake in target regions after displacement (MCHR1)
1 | COCC1=C(C(=O)O[11CH3])C(c2ccc(F)c(F)c2)N(C(=O)NCCCN2CCC(c3cccc(NC(C)=O)c3)CC2)C(=O)N1 (centres unmarked) [[^11C]SNAP-7941] | P-gp/BCRP substrate | 3.04 times | Statistically significant differences | Statistically significant differences | Statistically significant differences | decreased uptake
2 | COCC1=C(C(=O)OCC[18F])C(c2ccc(F)c(F)c2)N(C(=O)NCCCN2CCC(c3cccc(NC(C)=O)c3)CC2)C(=O)N1 (centres unmarked) [[^18F]FE@SNAP] | – | 2.45 times | no statistically significant difference | significant differences | significant differences | decreased uptake
